Paper PMC8348901, “Novel N-Substituted 3-Aryl-4-(diethoxyphosphoryl)azetidin-2-ones as Antibiotic Enhancers and Antiviral Agents in Search for a Successful Treatment of Complex Infections” (International Journal of Molecular Sciences, 2021)
Read-outs that look alike come from different tables or passages of the source.

Experiments:
[1] = tested on: cytomegalovirus AD-169 strain; assay: Antiviral CPE reduction assay, cytomegalovirus AD-169 strain in HEL cells; type: cell-based, human cytomegalovirus (HCMV); conditions: Human betaherpesvirus 5, AD169
[2] = tested on: HCT-116 (colorectal carcinoma); assay: Cytostatic activity (cell proliferation); type: cell-based
Protocol: (§1) The 50% cytostatic inhibitory concentration (IC50) causing a 50% decrease in cell proliferation was determined for all obtained compounds toward 9 cancerous cell lines, i.e.,: Capan-1 (pancreatic adenocarcinoma), Hap1 (chronic myeloid leukemia), HCT-116 (colorectal carcinoma), NCI-H460 (lung carcinoma), DND-41 (acute lymphoblastic leukemia), HL-60 (acute myeloid leukemia), K-562 (chronic myeloid leukemia), MM.1S (multiple myeloma), Z-138 non-Hodgkin lymphoma), as well as normal retina (non-cancerous) cells (hTERT RPE-1). Docetaxel, etoposide and stauroporine were used as the reference compounds.
(§2) All assays were performed in 96-well microtiter plates. To each well was added (5–7.5) × 10^4 tumor cells and a given amount of the tested compound. The cells were allowed to proliferate at 37 °C in a humidified, CO2-controlled atmosphere. At the end of the incubation period, the cells were counted in a Coulter counter. The IC50 (50% inhibitory concentration) was defined as the concentration of the compound that inhibited cell proliferation by 50%.

[3] = tested on: hTERT RPE-1 normal retina (non-cancerous) cells; assay: Cytostatic activity (cell proliferation); type: cell-based
Protocol: as §1, §2

[4] = tested on: NCI-H460 (lung carcinoma); assay: Cytostatic activity (cell proliferation); type: cell-based
Protocol: as §1, §2

[5] = tested on: Hap1 (chronic myeloid leukemia); assay: Cytostatic activity (cell proliferation); type: cell-based
Protocol: as §1, §2

[6] = tested on: DND-41 (acute lymphoblastic leukemia); assay: Cytostatic activity (cell proliferation); type: cell-based
Protocol: as §1, §2

S. aureus ATCC 25923 = assay: Oxacillin MIC reduction (adjuvant) microdilution assay; type: cell-based, Staphylococcus aureus; conditions: for Activity Gain [A]: MIC(OXA)/MIC(OXA+Cpd), compound 0.5 mM, adjuvant activity if A ≥ 4
Protocol: (§3) Since the lack of direct antibacterial activity of the obtained azetidinones was observed, all isomers trans and cis were investigated on their “adjuvant” properties, i.e., an ability to enhance the effectiveness of antibiotics against S. aureus strains. Thus, the compounds were tested in combination with the known β-lactam antibiotic, oxacillin, in the microdilution assays. The ability of the tested azetidinones to reduce minimum inhibitory concentration (MIC) of oxacillin against both, the referenced and the resistant S. aureus strains, was assessed.
(§4) The in-vitro antibacterial property and the capacity of tested compounds to increase the efficacy of antibiotics were evaluated in two Staphylococcus aureus strains, i.e., the reference clonal complex 5 (CC5) methicillin-susceptible (MSSA) strain ATCC 25923, and the methicillin-resistant (MRSA) extensively drug-resistant (XDR) clinical isolate HEMSA-5 [46].
(§5) In order to assess the increase of antibiotic efficacy, the assays were conducted by determining if/to what extent the investigated compounds reduce MICs of oxacillin by means of a serial dilution broth microplate method, in accordance with the CLSI requirements. The concentrations of compounds used in the MICs reduction assay were no greater than 1/4 of their respective MICs to ensure that cell viability was not affected by the intrinsic antibacterial activity of the molecules. Serial two-fold dilutions of oxacillin (Sigma-Aldrich; St. Louis, MI, USA, cat. no. 28221), were prepared in […] of the Mueller–Hinton broth (Merck; Darmstadt, Germany, cat. no. 1102930500). Suitable concentrations of the compounds (total volume […]) were then added. Bacterial suspensions were diluted to OD ¼ 0.5. The resulting suspensions were then diluted 1:100 and added in the volume of […] into the oxacillin serial dilutions with the compounds. The results were read after 20-h incubation at 37 °C.
(§6) The ability of compounds to improve antibiotic efficacy was expressed as the activity gain [A] parameter calculated according to the formula given in Figure 10.
(§7) Figure 10 Activity gain. MICAnt corresponds to the MIC of oxacillin in the absence of a compound tested and MICAnt + Comp refers to the MIC of oxacillin paired with a compound tested.

MRSA HEMSA 5 = assay: as above; type: cell-based, Staphylococcus aureus; conditions: for Activity Gain [A]: MIC(OXA)/MIC(OXA+Cpd), compound 0.5 mM, adjuvant activity if A ≥ 4
Protocol: as §3, §4, §5, §6, §7

[7] = tested on: Capan-1 (pancreatic adenocarcinoma); assay: Cytostatic activity (cell proliferation); type: cell-based
Protocol: The 50% cytostatic inhibitory concentration (IC50) causing a 50% decrease in cell proliferation was determined for all obtained compounds toward 9 cancerous cell lines, i.e.,: Capan-1 (pancreatic adenocarcinoma), Hap1 (chronic myeloid leukemia), HCT-116 (colorectal carcinoma), NCI-H460 (lung carcinoma), DND-41 (acute lymphoblastic leukemia), HL-60 (acute myeloid leukemia), K-562 (chronic myeloid leukemia), MM.1S (multiple myeloma), Z-138 non-Hodgkin lymphoma), as well as normal retina (non-cancerous) cells (hTERT RPE-1).
All assays were performed in 96-well microtiter plates. To each well was added (5–7.5) × 10^4 tumor cells and a given amount of the tested compound. The cells were allowed to proliferate at 37 °C in a humidified, CO2-controlled atmosphere. At the end of the incubation period, the cells were counted in a Coulter counter.

[8] = tested on: influenza A virus H1N1 subtype; assay: Antiviral assay, influenza A virus H1N1 subtype in MDCK cells; type: cell-based, influenza A virus H1N1 (A/PR/8)
in vitro = conditions: dog
[9] = oxacillin MIC in presence of 0.5 mM compound

| Compound | IC50 ([2]; Homo sapiens, HCT-116) [µM] | IC50 ([3]; hTERT-RPE1) [µM] | IC50 ([4]; Homo sapiens, NCI-H460) [µM] | IC50 ([5]; Homo sapiens, HAP1) [µM] | IC50 ([6]; DND41) [µM] | Activity Gain [A] (S. aureus ATCC 25923) | Activity Gain [A] (MRSA HEMSA 5) | IC50 ([7]; Homo sapiens, CAPAN-1) [µM] | also measured |
| --- | --- | --- | --- | --- | --- | --- | --- | --- | --- |
| Nc1nc(O)c2ncn(COC(CO)CO)c2n1 [ganciclovir] | – | – | – | – | – | – | – | – | EC50 [1]: 3.15 µM |
| CCOP(=O)(OCC)[C@@H]1[C@H](c2ccc(F)cc2)C(=O)N1C (relative stereo) [cis-10d, cis-N-methyl-3-(4-fluorophenyl)-4-(diethoxyphosphoryl)azetidin-2-one] | 86.5 | > 100 | 71 | 70.3 | > 100 | 0.5 | 1 | > 100 | – |
| CCOP(=O)(OCC)[C@H]1[C@H](c2ccccc2)C(=O)N1Cc1ccccc1 (relative stereo) [trans-11a, trans-N-benzyl-3-phenyl-4-(diethoxyphosphoryl)azetidin-2-one] | > 100 | > 100 | 50.9 | 63.6 | > 100 | <0.5 | 1–2 | 61 | – |
| CCOP(=O)(OCC)[C@@H]1[C@H](c2ccc(F)cc2F)C(=O)N1C (relative stereo) [cis-10e, cis-N-methyl-3-(2,4-difluorophenyl)-4-(diethoxyphosphoryl)azetidin-2-one] | > 100 | > 100 | 92.6 | > 100 | > 100 | 1 | 1 | 56.8 | – |
| CCOP(=O)(OCC)[C@H]1[C@H](c2cccc(F)c2)C(=O)N1C (relative stereo) [trans-10c, trans-N-methyl-3-(3-fluorophenyl)-4-(diethoxyphosphoryl)azetidin-2-one] | > 100 | > 100 | 62.8 | 69.1 | > 100 | 0.5 | 1 | 19.6 | – |
| CCOP(=O)(OCC)[C@@H]1[C@H](c2ccc(F)cc2)C(=O)N1Cc1ccccc1 (relative stereo) [cis-11d, cis-N-benzyl-3-(4-fluorophenyl)-4-(diethoxyphosphoryl)azetidin-2-one] | 54.1 | > 100 | 45.9 | 61.9 | > 100 | 1 | 1 | 35.9 | – |
| CCOP(=O)(OCC)[C@H]1[C@H](c2ccc(F)cc2)C(=O)N1Cc1ccccc1 (relative stereo) [trans-11d, trans-N-benzyl-3-(4-fluorophenyl)-4-(diethoxyphosphoryl)azetidin-2-one] | 44.3 | 73 | 28.4 | 48.3 | > 100 | 0.5 | 2 | 35.8 | – |
| NC(=O)c1ncn([C@@H]2O[C@H](CO)[C@@H](O)[C@H]2O)n1 [ribavirin, reference compound] | – | – | – | – | – | – | – | – | EC50 ([8]; H1N1, MDCK cells, visual CPE score, read-out: EC50 by visual CPE score, influenza A virus H1N1): 8.9 µM; EC50 ([8]; H1N1, MDCK, read-out: EC50 by TMS score, influenza A virus H1N1): 6.6 µM; CC50 (in vitro): ≥ 100 µM |
| CCOP(=O)(OCC)[C@@H]1[C@H](c2ccccc2)C(=O)N1C (relative stereo) [cis-10a, cis-N-methyl-3-phenyl-4-(diethoxyphosphoryl)azetidin-2-one] | – | – | – | – | – | 0.5 | 1–2 | – | IC50 [2]: > 100 µM; IC50 [3]: > 100 µM; IC50 [4]: > 100 µM; IC50 [5]: 46.3 µM; IC50 [6]: > 100 µM; OXA+ Cpd MIC (S. aureus ATCC 25923; [9]): 1 µg/mL; OXA+ Cpd MIC (MRSA HEMSA 5; [9]): 256 to 512 µg/mL; IC50 [7]: 37.8 µM |
| CCOP(=O)(OCC)[C@@H]1[C@H](c2ccccc2F)C(=O)N1Cc1ccccc1 (relative stereo) [cis-11b, cis-N-benzyl-3-(2-fluorophenyl)-4-(diethoxyphosphoryl)azetidin-2-one] | 74.1 | > 100 | 72.8 | > 100 | > 100 | 1 | 1 | 53 | – |
| CCOP(=O)(OCC)[C@H]1[C@H](c2ccc(F)cc2F)C(=O)N1Cc1ccccc1 (relative stereo) [trans-11e, trans-N-benzyl-3-(2,4-difluorophenyl)-4-(diethoxyphosphoryl)azetidin-2-one] | 36.6 | 25.6 | 24.4 | 42.9 | > 100 | 0.5 | 1 | 36.5 | – |
| CCOP(=O)(OCC)[C@H]1[C@H](c2ccc(F)cc2F)C(=O)N1C (relative stereo) [trans-10e, trans-N-methyl-3-(2,4-difluorophenyl)-4-(diethoxyphosphoryl)azetidin-2-one] | > 100 | > 100 | 67.6 | 51.7 | > 100 | <0.5 | 1 | 51.7 | – |
| Nc1ccn(C[C@@H](CO)OCP(=O)(O)O)c(=O)n1 [cidofovir] | – | – | – | – | – | – | – | – | EC50 [1]: 0.67 µM |
| CCOP(=O)(OCC)[C@H]1[C@H](c2ccccc2F)C(=O)N1C (relative stereo) [trans-10b, trans-N-methyl-3-(2-fluorophenyl)-4-(diethoxyphosphoryl)azetidin-2-one] | 44.1 | > 100 | 34.8 | 38.7 | > 100 | 0.5 | 1 | 53.1 | – |
